From ChEMBL document CHEMBL4414589, “Development of High-Throughput Fluorescent-Based Screens to Accelerate Discovery of P2X Inhibitors from Animal Venoms” (J Nat Prod, 2019)

Tests used:
Format in all cases: cell-based
[1] = target: T1, P2X purinoceptor 7 (Homo sapiens, UniProt Q99572); test: Antagonist activity at human P2X7R transfected in HEK293 cells assessed as inhibition of ATP-mediated calcium influx measured after 10 mins by YOPRO-1 dye uptake assay
T1 sequence (Q99572 whole entry): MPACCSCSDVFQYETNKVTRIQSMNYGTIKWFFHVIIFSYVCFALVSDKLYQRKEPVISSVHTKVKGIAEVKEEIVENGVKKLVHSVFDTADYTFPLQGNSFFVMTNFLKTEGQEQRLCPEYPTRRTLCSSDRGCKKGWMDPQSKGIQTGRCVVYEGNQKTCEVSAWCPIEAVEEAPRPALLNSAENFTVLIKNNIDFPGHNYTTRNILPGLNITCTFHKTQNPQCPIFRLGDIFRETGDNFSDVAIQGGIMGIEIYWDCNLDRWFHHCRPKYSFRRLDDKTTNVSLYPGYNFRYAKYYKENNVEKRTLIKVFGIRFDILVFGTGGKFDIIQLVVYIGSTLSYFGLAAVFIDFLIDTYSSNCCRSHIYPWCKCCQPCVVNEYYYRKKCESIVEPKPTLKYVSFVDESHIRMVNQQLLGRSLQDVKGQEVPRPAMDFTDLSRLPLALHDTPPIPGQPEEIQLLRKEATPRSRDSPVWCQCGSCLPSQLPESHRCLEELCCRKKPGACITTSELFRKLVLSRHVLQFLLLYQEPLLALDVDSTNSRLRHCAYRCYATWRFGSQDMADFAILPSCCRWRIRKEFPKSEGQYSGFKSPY

[2] = target: T2, P2X purinoceptor 4 (Homo sapiens, UniProt Q99571); test: Antagonist activity at human P2X4R transfected in 1321N1 cells assessed as inhibition of ATP-mediated calcium influx measured after 10 mins by Fura-2AM assay
T2 sequence (Q99571 whole entry): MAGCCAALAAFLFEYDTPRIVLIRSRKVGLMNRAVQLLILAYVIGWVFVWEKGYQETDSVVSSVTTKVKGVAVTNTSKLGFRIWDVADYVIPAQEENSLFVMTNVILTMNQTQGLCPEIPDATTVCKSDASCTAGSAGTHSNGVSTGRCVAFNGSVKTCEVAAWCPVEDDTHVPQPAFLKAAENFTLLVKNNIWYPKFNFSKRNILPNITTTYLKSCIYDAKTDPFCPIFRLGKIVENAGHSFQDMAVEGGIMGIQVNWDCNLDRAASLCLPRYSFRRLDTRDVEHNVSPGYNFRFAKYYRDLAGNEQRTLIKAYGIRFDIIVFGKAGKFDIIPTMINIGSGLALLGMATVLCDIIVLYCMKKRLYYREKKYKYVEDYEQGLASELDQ

[3] = target: T2, P2X purinoceptor 4; test: Antagonist activity at human P2X4R transfected in HEK293 cells assessed as inhibition of ATP-mediated calcium influx measured after 10 mins by YOPRO-1 dye uptake assay

SMILES | IC50 [1] | IC50 [2] | IC50 [3]
CC(C)c1cc(Br)c(NC(=O)Nc2cccnc2)c(Br)c1 | Not Active |  | 
Cc1ccc(S(=O)(=O)N2c3ccccc3Oc3ccccc32)cc1 | Not Active |  | 
O=C1CN=C(c2cccc(Br)c2)c2oc3ccccc3c2N1 | Not Active |  | 
O=C(CC12CC3CC(CC(C3)C1)C2)Nc1cccc2nc(NCCNCCO)ccc12 |  | Not Active | Not Active
